{"source": "patent US20030152577A1", "about": "“Dye-bioconjugates for simultaneous optical diagnostic and therapeutic applications” (MALLINCKRODT INC., priority 2002, published 2003)", "design_in_all_cases": "species or system male Lewis rats", "key": {"[1]": {"test_system": "CA20948 (pancreatic) tumor, rich in somatostatin (SST-2) receptors", "assay": "Non-invasive in vivo fluorescence imaging of CA20948 tumor bearing rat", "text": "(§1) A non-invasive in vivo fluorescence imaging apparatus was employed to assess the efficacy of indocyanine green (ICG) in three different rat tumor cell lines of the inventive contrast agents developed for tumor detection in animal models. A LaserMax Inc. laser diode of nominal wavelength 780 nm and nominal power of 40 mW was used. The detector was a Princeton Instruments model RTE/CCD-1317-K/2 CCD camera with a Rodenstock 10 mm F2 lens (stock #542.032.002.20) attached. An 830 nm interference lens (CVI Laser Corp., part # F10-830-4-2) was mounted in front of the CCD input lens, such that only emitted fluorescent light from the contrast agent was imaged.\n(§2) Three tumor cell lines, DSL 6/A (pancreatic), Dunning R3327-H (prostate), and CA20948 (pancreatic), which are rich in somatostatin (SST-2) receptors were induced into male Lewis rats by solid implant technique in the left flank area (Achilefu et al., Invest Radiology, 2000, pp. 479-485). Palpable masses were detected nine days post implant.\nThe peptide, octreotate, is known to target somatostatin (SST-2) receptors. Therefore, the cyano-octreotates conjugate, Cytate 1, was prepared as described in Example 4. The pancreatic acinar carcinoma, CA20948, was induced into male Lewis rats as described in Example 9.\nUsing the CCD camera apparatus, dye localization in the tumor was observed. […]"}, "[2]": {"test_system": "Dunning R3327-H (prostate) tumor", "assay": "Non-invasive in vivo fluorescence imaging of Dunning R3327-H tumor in rats", "settings": "0.5 ml of 0.42 mg/ml in saline, tail vein, images at 2 and 30 minutes post administration", "text": "as §1, §2"}, "[3]": {"test_system": "DSL 6/A (pancreatic) tumor", "assay": "Non-invasive in vivo fluorescence imaging of DSL 6/A tumor in rats", "settings": "0.5 ml of 0.42 mg/ml in saline, tail vein, images at 2 and 30 minutes post administration", "text": "as §1, §2"}}, "data": [{"smiles": "CC1(C)C(/C=C/C=C/C=C/C=C2\\N(CCCCS(=O)(=O)O)c3ccc4ccccc4c3C2(C)C)=[N+](CCCCS(=O)(=O)[O-])c2ccc3ccccc3c21", "note": "[ICG, indocyanine green]", "values": [{"measurement": "perfusion of the agent into the tumor", "setting": "[1]; 0.5 ml of 0.42 mg/ml in saline, tail vein, images at 2 and 30 minutes post administration", "value": "only a slight and transient perfusion that was cleared after only 30 minutes post injection"}, {"measurement": "non-specific localization into the tumor line", "setting": "[1]; compared to the other two lines", "value": "no non-specific localization"}, {"measurement": "perfusion of the agent into the tumor", "setting": "[2]", "value": "slow perfusion of the agent into the tumor over time"}, {"measurement": "perfusion of the agent into the tumor", "setting": "[3]", "value": "slow perfusion of the agent into the tumor over time"}]}]}
